Measurements: paper PMC6977516, “An assessment of the interaction for three Chrysanthemum indicum flavonoids and α‐amylase by surface plasmon resonance” (Food Science & Nutrition, 2019)
Read-outs that look alike come from different tables or passages of the source. Marks after values point to notes of the source that are not given here.

How the values were obtained:
α-amylase [1] = molecular target: T1, α-amylase (Bacillus subtilis, UniProt P00691); test: SPR: effect of pH and salt on the interaction between flavonoids and α-amylase; format: binding; conditions: flavonoid 200 μM; for optimal CaCl2 concentration for binding with α-amylase: CaCl2 0.04-0.2 M; for optimal MgCl2 concentration for binding with α-amylase: MgCl2 0.02-0.25 M
T1 construct: purchased Shanghai Ryon Biological Technology Co. Ltd
Description: The effect of pH on the interaction between three flavonoids and α‐amylase was carried out within the pH range (3–9) based on the method described in the above experiment. As is known to all, metal ions play a crucial role in maintaining normal physiological function of the α‐amylase. Moreover, salt is also widely used in food industry. To evaluate whether KCl, MgCl2, and CaCl2 can interfere with the interaction between flavonoids and α‐amylase, a series of 200 μM flavonoids with a various concentrations of KCl (0.02–0.3 M), MgCl2 (0.02–0.25 M), or CaCl2 (0.04–0.2 M) solutions were flowed over the chip surface modified with α‐amylase, respectively.

[2] = DPPH radical assay without or with α-amylase; conditions: mean ± RSD (n = 3); for Inhibition (%) of antioxidant activity by binding to α-amylase: (add α-amylase IC50 − not add α-amylase IC50)/not add α-amylase IC50
Description: The DPPH assay was performed to assess effect of α‐amylase on antioxidant activity of three flavonoids as following procedure (Kim et al., 2014). 2 mM DPPH solution was prepared by dissolving 0.0787 g of DPPH in 100 ml of anhydrous ethanol and stored at −20°C. α‐Amylase (300 μM) and three flavonoids (2.5–125 μM) were prepared with PBS (pH = 6.0) and ethanol, respectively. Samples were prepared by mixing flavonoids solution (without or with 10 μl α‐amylase), 100 μl of DPPH, and anhydrous ethanol. Then, samples were incubated for 10 min at room temperature. Absorbance at 517 nm was measured in the spectrophotometer. DPPH radical scavenging activity was calculated as follows (Liu et al., 2017):(4) DPPHradicalscavengingactivity(%)=1-Ai-Aj/Ac×100% in which AC is the absorbance of the DPPH (100 μl DPPH and 100 μl ethanol), Ai is the absorbance of the DPPH and sample (100 μl DPPH, 50 μl flavonoids, and 50 μl ethanol, or 100 μl DPPH, 50 μl flavonoids, 10 μl α‐amylase, and 40 μl ethano1), and Aj is the absorbance of the blank sample (50 μl flavonoids and 150 μl ethanol). All experiments were carried out in triplicate, and the results were expressed as mean ± RSD. IC50 values were obtained based on plotting the percentage of DPPH radical scavenging activity against the flavonoids concentration.

α-amylase [3] = molecular target: T1, α-amylase; test: Inhibition kinetics of α-amylase by Lineweaver-Burk plots; format: biochemical; conditions: for Inhibitory type: Lineweaver-Burk plots, starch 0.25-1.25 mg/ml
Description: To further explore the inhibitory type of three flavonoids on α‐amylase, kinetic analysis was carried out by using Lineweaver–Burk plots. Starch was used as substrate, and the inhibition kinetics of α‐amylase was evaluated by varying four different concentrations (0.25, 0.50, 1.00, and 1.25 mg/ml) of starch in the absence or presence of three flavonoids. The Lineweaver–Burk plots of the three flavonoids can be obtained from the double‐reciprocal plots between 1/[S] (starch concentration) and 1/[V] (reaction rate). Besides, different concentrations of flavonoids (0, 5, and 10 μM) were used and the three Lineweaver––Burk plots for each flavonoid can be obtained. The Ki (inhibition constant) value was obtained from the least‐squares regression line of the slopes of Lineweaver–Burk plots versus the corresponding flavonoid concentrations [I] (Kandra, Gyémánt, Zajácz, & Batta, 2004; Yang et al., 2014). The formula is(3) slope=Km/Vmax1+[I]/Ki Ki = intercept of Equation (3) on x axis (Yang et al., 2014)

α-amylase [4] = molecular target: T1, α-amylase; test: SPR binding assay of flavonoids to immobilized α-amylase; conditions: for kon: pH 6, read-out: Ka (association rate constant); for koff: pH 6, read-out: Kd (dissociation rate constant) × 10^–3
Description: A commercial BI‐2000 SPR instrument (Biosensing Instrument Inc.) was used for all SPR experiments in this study. The bare Au sensor chip was obtained from Biosensing Instrument Inc. The preparation of Au sensor chip can be referred to our previous published paper (Liu et al., 2014). A flow delivery system incorporated in the BI‐SPR platform pumped samples onto the SPR sensor chip at a flow rate of 10 μl/min. The 0.01 M PBS (pH = 6.0) buffer was used as the running buffer. The BI‐SPR 2000 control software (version 2.2.0.) was used to perform instrument operation and data processing. The Varioskan Flash (Multiskan GO 1510, Thermo Fisher Scientific) was used for the α‐amylase inhibitory activity and DPPH radical assays.
Binding assay of three flavonoids to α‐amylase was carried out using the SPR sensor. The immobilization of α‐amylase on the chip surface was performed using a standard amine coupling procedure as described previously (Liu, Luo, Li, She, & Gao, 2017). […] After the stable baseline was obtained, different concentrations of flavonoids (50–800 μM) were injected over the chip surface coated with α‐amylase, respectively. The SPR angle was monitored until the baseline stabilization. To enable reuse of the SPR chip, the chip surface could be regenerated using 2 mM NaOH after each measurement. Regeneration parameters were based on the strength of interaction between the analyte and α‐amylase. The chip surface was rinsed by PBS between each step. All the experiments were repeated three times, and kinetic parameters (ka, kd) were deduced by nonlinear fitting of the primary sensorgram data based on the 1:1 Langmuir‐binding model using the BI‐SPR 2000 control software (version 2.2.0.). The model has been widely used in protein–ligand binding analysis and can be calculated through the following formula (Gombau et al., 2019; Islam, Shen, Gurgel, Rojas, & Carbonell, 2014; Lee, Jeong, Jones, & Kim, 2011):(1) dR/dt=kaCRmax-R-kdR where R is the SPR signal at time t, and C is the concentration of the analyte. R max is the maximum analyte binding capacity in SPR signal. ka is the association rate constant and kd is the dissociation rate constant.

[5] = with 10 μl α-amylase (300 μM), read-out: Add α-amylase IC50 (DPPH radical scavenging)
[6] = without α-amylase, read-out: Not add α-amylase IC50 (DPPH radical scavenging)

T1 sequence (P00691 42-659): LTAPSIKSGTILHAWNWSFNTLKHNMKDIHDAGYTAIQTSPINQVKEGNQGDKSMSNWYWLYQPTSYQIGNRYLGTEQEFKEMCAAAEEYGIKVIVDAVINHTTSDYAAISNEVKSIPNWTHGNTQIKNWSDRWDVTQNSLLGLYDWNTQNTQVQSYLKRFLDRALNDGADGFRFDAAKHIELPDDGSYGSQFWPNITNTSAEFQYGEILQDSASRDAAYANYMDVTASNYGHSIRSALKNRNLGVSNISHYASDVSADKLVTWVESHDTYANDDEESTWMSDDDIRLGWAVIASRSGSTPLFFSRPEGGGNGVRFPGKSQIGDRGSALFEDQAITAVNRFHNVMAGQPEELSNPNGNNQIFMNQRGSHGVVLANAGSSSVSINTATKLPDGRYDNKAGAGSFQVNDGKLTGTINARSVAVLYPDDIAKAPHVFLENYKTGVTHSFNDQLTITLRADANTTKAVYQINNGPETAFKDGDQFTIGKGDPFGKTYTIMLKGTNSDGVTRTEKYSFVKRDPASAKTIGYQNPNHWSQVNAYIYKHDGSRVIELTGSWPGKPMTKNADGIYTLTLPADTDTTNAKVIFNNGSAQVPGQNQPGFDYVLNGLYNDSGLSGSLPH

Structure (SMILES) | optimal CaCl2 concentration for binding with α-amylase (α-amylase [1]) [M] | optimal MgCl2 concentration for binding with α-amylase (α-amylase [1]) [M] | IC50 [2, 5] [µM] | IC50 [2, 6] [µM] | Ki (α-amylase [3]) [µM] | Inhibitory type (α-amylase [3]) | Kd (α-amylase [4]) [µM] | kon (α-amylase [4]) [M⁻¹ s⁻¹] | koff (α-amylase [4]) [s⁻¹] | Inhibition (%) of antioxidant activity by binding to α-amylase [2] | Ki (α-amylase [3]; slopes of Lineweaver-Burk plots vs flavonoid concentration (0, 5, 10 μM), starch substrate, read-out: Ki) [µM] | Kd (α-amylase [4]; SPR, 1:1 model, pH 6.0, mean ± RSD (n = 3), read-out: KD (equilibrium dissociation constant)) [µM]
COc1ccc(-c2cc(=O)c3c(O)cc(O)cc3o2)cc1 [Acacetin, acacetin] | 0.100 | 0.120 | 77.8 | 61.3 | 39.7 | Noncompetitive | 2920 ± 200 | 2.76 ± 6 | 0.008 ± 0.00015 | – | – | –
COc1ccc(-c2cc(=O)c3c(O)cc(O[C@@H]4O[C@H](CO[C@@H]5O[C@@H](C)[C@H](O)[C@@H](O)[C@H]5O)[C@@H](O)[C@H](O)[C@H]4O)cc3o2)cc1 [Buddleoside] | 0.100 | 0.120 | 79.13 ± 0.012 | 65.05 ± 0.02 | 43.5 | Noncompetitive | 3300 ± 80 | 2.54 ± 0.2 | 0.0083 ± 0.00015 | 21.65 ± 0.04^a % | – | –
O=c1cc(-c2ccc(O)c(O)c2)oc2cc(O)cc(O)c12 [Luteolin, luteolin] | 0.120 | 0.150 | 75.2 | 50.1 | – | Noncompetitive | – | 4.12 ± 0.1 | 0.00808 ± 0.00011 | 49.93 ± 0.037^c % | 26.8 | 1970 ± 120
